Experimental data reported in patent US20220348549A1 (Hoffmann-La Roche Inc., priority 2019, published 2022).

Test system: HBV cccDNA (HBeAg level in HepDES19 cells)
Test: Engineered HepDES19 primary screen assay (HBeAg ELISA as surrogate marker for cccDNA)
Format: cell-based
Details: Hepatitis B virus, HepDES19, 120 h
From the text: The assay was employed to screen for novel HBV cccDNA inhibitors. HepDES19 is a HBV cccDNA-producing cell line. In this cell line, HBeAg in the cell culture supernatant as surrogate marker, as HBeAg production depends on cccDNA level and activity. HepDES19 is an engineered cell line which contains a 1.1 unit length HBV genome, and pgRNA transcription from the transgene is controlled by Tetracycline (Tet). In the absence of Tet, pgRNA transcription will be induced, but HBV e antigen (HBeAg) could not be produced from this pgRNA due to very short leader sequence before the HBeAg start codon and the start codon is disrupted. Only after cccDNA is formed, the missing leader sequence and start codon mutation would be restored from the 3′-terminal redundancy of pgRNA, and then HBeAg could be synthesized. Therefore, HBeAg could be used as a surrogate marker for cccDNA (Zhou, T. et al., Antiviral Res. (2006), 72(2), 116-124; Guo, H. et al., J. Virol. (2007), 81(22), 12472-12484).
HepDES19 cells were seeded at 2×10^6 cells per T150 flask and cultured with the culture medium (Dulbecco's Modified Eagle Medium: Nutrient Mixture F-12 [DMEM-F12, Gibco Cat. 11320-82], 10% Fetal Bovine Serum [FBS, Clontech Cat. 631101], 0.1 mM Non-Essential Amino Acids Solution [NEAA, Gibco Cat. 11140-050], 50 μg/mL Penicillin-Streptomycin [PS, Invitrogen Cat. 15140-163], 500 μg/mL Geneticin [G418, Invitrogen Cat. 10131-027]) containing 3 μg/mL Tet (Sigma, Cat. 87128) for 5 days. Cells were then seeded at 4×10^6 cells per T150 in the same culture medium as described above in the absence of Tet for 8 days. Cells were then harvested and frozen at density of 2×10^6 cells per mL. For compound testing, the frozen cells were thawed and seeded into 96-well plates at a density of 6×10^4 cells per well. At 24 hrs after seeding, half log serial dilutions of compounds made with Dimethyl sulfoxide (DMSO, Sigma, Cat. D2650) were further diluted with the same culture medium as described above before they were added to the cells to reach desired final compound concentrations and 1% DMSO concentration. Plates were then incubated at 37° C. for another 5 days before measurement of HBeAg level and cell viability. Intracellular HBeAg level were measured with enzyme-linked immunosorbent assay (ELISA) kit (Shanghai Kehua Diagnostic Medical Products Co., Ltd). Cell viability was assessed using Cell Counting Kit-8 (Donjindo, Cat. CK04-20). IC50 values were derived from the dose-response curve using 4 parameter logistic curve fit method.
The compounds of the present invention were tested for their capacity to inhibit extracellular HBeAg level as described herein.

Structure (SMILES)	IC50
COC(=O)COCCOc1ccc(-c2nc(C)c3cccc(Cl)c3n2)cc1 [Example 10, Methyl 2-[2-[4-(8-chloro-4-methyl-quinazolin-2-yl)phenoxy]ethoxy]acetate]	1040 nM
O=C(NCCO)c1nc(-c2ccc(Cl)nc2)nc2c(Cl)cccc12 [Example 52, 8-Chloro-2-(6-chloro-3-pyridyl)-N-(2-hydroxyethyl)quinazoline-4-carboxamide]	160 nM
O=C(O)c1nc(-c2ccc(N3CCCC3)nc2)nc2c(Cl)cccc12 [Example 49, 8-Chloro-2-(6-pyrrolidin-1-yl-3-pyridyl)quinazoline-4-carboxylic acid]	11000 nM
Clc1ccc(-c2ncc3cccc(Cl)c3n2)cn1 [Example 24, 8-Chloro-2-(6-chloropyridin-3-yl)quinazoline]	94 nM
Cc1nc(-c2ccc(OCCOCC(=O)O)cc2)nc2c(Cl)cccc12 [Example 11, 2-[2-[4-(8-Chloro-4-methyl-quinazolin-2-yl)phenoxy]ethoxy]acetic acid]	4490 nM
Cc1nc(-c2ccc(OCCO)cc2)nc2c(Cl)cccc12 [Example 9, 2-[4-(8-Chloro-4-methyl-quinazolin-2-yl)phenoxy]ethanol]	1930 nM
O=C(O)c1nc(-c2ccc(Br)cc2)nc2c(Cl)cccc12 [Example 37, 2-(4-Bromophenyl)-8-chloroquinazoline-4-carboxylic acid]	2240 nM
O=C(c1nc(-c2ccc(Br)cc2)nc2cc(C(F)(F)F)ccc12)N1CCOCC1 [Example 44, [2-(4-Bromophenyl)-7-(trifluoromethyl)quinazolin-4-yl]-morpholino-methanone]	8700 nM
Cc1nc(-c2ccc(OCCO[C@H]3C[C@@H](C(=O)O)C3)cc2)nc2c(Cl)cccc12 [Example 12, cis-3-[2-[4-(8-Chloro-4-methyl-quinazolin-2-yl)phenoxy]ethoxy]cyclobutanecarboxylic acid]	63 nM
Cc1nc(-c2cccc(C(F)(F)F)c2)nc2cc(Br)ccc12 [Example 3, 7-Bromo-4-methyl-2-[3-(trifluoromethyl)phenyl]quinazoline]	750 nM
O=C(O)C1CC(OCCOc2ccc(-c3nc(C(F)(F)F)c4cccc(Cl)c4n3)cc2)C1 (stereo not shown) [Example 56, 3-[2-[4-[8-chloro-4-(trifluoromethyl)quinazolin-2-yl]phenoxy]ethoxy]cyclobutanecarboxylic acid]	7860 nM
OCc1nc(-c2ccc(Cl)cc2)nc2c(Cl)cccc12 [Example 21, (8-Chloro-2-(4-chlorophenyl)quinazolin-4-yl)methanol]	94 nM
COCc1nc(-c2cccc(Br)c2)nc2cc(C(F)(F)F)ccc12 [Example 16, 2-(3-Bromophenyl)-4-(methoxymethyl)-7-(trifluoromethyl)quinazoline]	2390 nM
O=C(O)c1nc(-c2cccc(Br)c2)nc2cc(C(F)(F)F)ccc12 [Example 31, 2-(3-Bromo-phenyl)-7-trifluoromethyl-quinazoline-4-carboxylic acid]	17800 nM
O=C(O)COCCOc1ccc(-c2ncc3cccc(Cl)c3n2)cn1 [Example 51, 2-[2-[[5-(8-Chloroquinazolin-2-yl)-2-pyridyl]oxy]ethoxy]acetic acid]	4860 nM
O=C(O)c1cccc(COc2ccc(-c3ncc4cccc(Cl)c4n3)cc2)c1 [Example 7, 3-((4-(8-Chloroquinazolin-2-yl)phenoxy)methyl)benzoic acid]	220 nM
CCOc1ccc(-c2nc(C(=O)O)c3cccc(Cl)c3n2)cn1 [Example 48, 8-Chloro-2-(6-ethoxy-3-pyridyl)quinazoline-4-carboxylic acid]	7570 nM
CCOC(=O)c1nc(-c2ccc(Br)cc2)nc2c(Cl)cccc12 [Example 38, ethyl 2-(4-bromophenyl)-8-chloro-quinazoline-4-carboxylate]	1160 nM
Cc1nc(-c2ccc(OCCOC3CC(C(=O)O)C3)cc2)nc2cc(C(F)(F)F)ccc12 (stereo not shown) [Example 15, 3-(2-(4-(4-Methyl-7-(trifluoromethyl)quinazolin-2-yl)phenoxy)ethoxy) cyclobutanecarboxylic acid]	60 nM
Oc1ccc(-c2ncc3cccc(Cl)c3n2)cc1 [Example 5, 4-(8-Chloroquinazolin-2-yl)phenol]	4350 nM

Structure (SMILES)	IC50
COc1nc(-c2ccc(OCCOC3CC(C(=O)O)C3)cc2)nc2c(Cl)cccc12 (stereo not shown) [Example 55, 3-(2-(4-(8-Chloro-4-methoxyquinazolin-2-yl)phenoxy)ethoxy)cyclobutanecarboxylic acid]	26 nM
Cc1nc(-c2ccc(Cl)cc2)nc2c(Cl)cccc12 [Example 13, 8-Chloro-2-(4-chlorophenyl)-4-methylquinazoline]	1030 nM
OCCN(CCO)c1ccc(-c2ncc3cccc(Cl)c3n2)cn1 [Example 28, 2,2′-((5-(8-Chloroquinazolin-2-yl)pyridin-2-yl)azanediyl)diethanol]	300 nM
COc1ccc(-c2nc(C(=O)NCCO)c3cccc(Cl)c3n2)cc1 [Example 35, 8-Chloro-N-(2-hydroxyethyl)-2-(4-methoxyphenyl)quinazoline-4-carboxamide]	16100 nM
OCc1nc(-c2cccc(Br)c2)nc2cc(C(F)(F)F)ccc12 [Example 20, (2-(3-Bromophenyl)-7-(trifluoromethyl)quinazolin-4-yl)methanol]	3660 nM
CN(C)c1ccc(-c2ncc3cccc(Cl)c3n2)cn1 [Example 26, 5-(8-Chloroquinazolin-2-yl)-N,N-dimethylpyridin-2-amine]	91 nM
O=C(O)[C@H]1C[C@@H](OCCOc2ccc(-c3nc(O)c4cccc(Cl)c4n3)cn2)C1 [Example 54, cis-3-[2-[[5-(8-Chloro-4-hydroxy-quinazolin-2-yl)-2-pyridyl]oxy]ethoxy]cyclobutanecarboxylic acid]	3420 nM
Clc1cccc2cnc(-c3ccc(N4CCOCC4)nc3)nc12 [Example 27, 4-(5-(8-Chloroquinazolin-2-yl)pyridin-2-yl)morpholine]	590 nM
COc1ccc(-c2ncc3cccc(Cl)c3n2)cc1 [Example 36, 8-Chloro-2-(4-methoxyphenyl)quinazoline]	180 nM
COC(=O)c1nc(-c2cccc(Br)c2)nc2cc(C(F)(F)F)ccc12 [Example 32, Methyl 2-(3-bromophenyl)-7-(trifluoromethyl)quinazoline-4-carboxylate]	6190 nM
Cc1nc(-c2cccc(CO)c2)nc2cc(C(F)(F)F)ccc12 [Example 22, (3-(4-Methyl-7-(trifluoromethyl)quinazolin-2-yl)phenyl)methanol]	7130 nM
Cc1nc(-c2cccc(Br)c2)nc2cc(C(F)(F)F)c(Cl)cc12 [Example 4, 2-(3-Bromophenyl)-6-chloro-4-methyl-7-(trifluoromethyl)quinazoline]	3620 nM
Clc1cccc2cnc(-c3ccc(Br)cc3)nc12 [Example 1, 2-(4-Bromophenyl)-8-chloroquinazoline]	100 nM
COc1ccc(-c2nc(C(N)=O)c3cccc(Cl)c3n2)cc1 [Example 34, 8-chloro-2-(4-methoxyphenyl)quinazoline-4-carboxamide]	2220 nM
CN(C)Cc1nc(-c2cccc(Br)c2)nc2cc(C(F)(F)F)ccc12 [Example 17, 1-(2-(3-Bromophenyl)-7-(trifluoromethyl)quinazolin-4-yl)-N,N-dimethylmethanamine]	4660 nM
Cc1nc(-c2ccc(OCCOCC(=O)O)cc2)nc2cc(C(F)(F)F)ccc12 [Example 14, 2-(2-(4-(4-Methyl-7-(trifluoromethyl)quinazolin-2-yl)phenoxy)ethoxy)acetic acid]	29900 nM
O=C(O)c1nc(-c2ccc(Cl)nc2)nc2c(Cl)cccc12 [Example 45, 8-Chloro-2-(6-chloro-3-pyridyl)quinazoline-4-carboxylic acid]	660 nM
O=C(NCCCl)c1nc(-c2ccc(Br)cc2)nc2c(Cl)cccc12 [Example 39, 2-(4-Bromophenyl)-8-chloro-N-(2-chloroethyl)quinazoline-4-carboxamide]	1170 nM
NC(=O)c1nc(-c2ccc(Cl)nc2)nc2c(Cl)cccc12 [Example 46, 8-chloro-2-(6-chloro-3-pyridyl)quinazoline-4-carboxamide]	110 nM
O=C(c1nc(-c2ccc(Cl)nc2)nc2c(Cl)cccc12)N1CCOCC1 [Example 53, [8-Chloro-2-(6-chloro-3-pyridyl)quinazolin-4-yl]-morpholino-methanone]	83 nM
